This is an account of results in patent US20250346616A1 (DIZAL (JIANGSU) PHARMACEUTICAL CO., LTD., priority 2022, published 2025).

The target of assay [1] is Recombinant ROCK1 (Homo sapiens (Human), UniProt Q13464). Nature of the assay: Lance Ultra Kinase Assay, ROCK1 inhibition. To be noted: ATP at Km, 30 min pre-incubation, 1 h reaction. The assay is classed as biochemical.
Description: (§1) The inhibition potency of compounds against these enzymes was assessed using Lance Ultra Kinase Assay. In brief, recombinant kinases were pre-incubated in the presence or absence of compound at room temperature for 30 minutes. The reaction was initiated by the addition of the ATP (Km) and substrate peptide which could be phosphorylated by kinases in the reaction. After 1 h incubation, the reaction was stopped by the addition of the detection reagent mix containing EDTA. The fluorescence was measured at 615 nm and 665 nm, respectively with excitation wavelength at 320 nm. The calculated signal ratio of 665 nm/615 nm is proportional to the kinase activity.
In assay [2] the target is Recombinant ROCK2 (Homo sapiens (Human), UniProt O75116). Nature of the assay: Lance Ultra Kinase Assay, ROCK2 inhibition. The assay is classed as biochemical. As to conditions: ATP at Km, 30 min pre-incubation, 1 h reaction.
Description: as §1

The structures appear in SMILES notation. pIC50: −log10 of the molar value.

Recombinant ROCK1, sequence (Q13464 whole entry): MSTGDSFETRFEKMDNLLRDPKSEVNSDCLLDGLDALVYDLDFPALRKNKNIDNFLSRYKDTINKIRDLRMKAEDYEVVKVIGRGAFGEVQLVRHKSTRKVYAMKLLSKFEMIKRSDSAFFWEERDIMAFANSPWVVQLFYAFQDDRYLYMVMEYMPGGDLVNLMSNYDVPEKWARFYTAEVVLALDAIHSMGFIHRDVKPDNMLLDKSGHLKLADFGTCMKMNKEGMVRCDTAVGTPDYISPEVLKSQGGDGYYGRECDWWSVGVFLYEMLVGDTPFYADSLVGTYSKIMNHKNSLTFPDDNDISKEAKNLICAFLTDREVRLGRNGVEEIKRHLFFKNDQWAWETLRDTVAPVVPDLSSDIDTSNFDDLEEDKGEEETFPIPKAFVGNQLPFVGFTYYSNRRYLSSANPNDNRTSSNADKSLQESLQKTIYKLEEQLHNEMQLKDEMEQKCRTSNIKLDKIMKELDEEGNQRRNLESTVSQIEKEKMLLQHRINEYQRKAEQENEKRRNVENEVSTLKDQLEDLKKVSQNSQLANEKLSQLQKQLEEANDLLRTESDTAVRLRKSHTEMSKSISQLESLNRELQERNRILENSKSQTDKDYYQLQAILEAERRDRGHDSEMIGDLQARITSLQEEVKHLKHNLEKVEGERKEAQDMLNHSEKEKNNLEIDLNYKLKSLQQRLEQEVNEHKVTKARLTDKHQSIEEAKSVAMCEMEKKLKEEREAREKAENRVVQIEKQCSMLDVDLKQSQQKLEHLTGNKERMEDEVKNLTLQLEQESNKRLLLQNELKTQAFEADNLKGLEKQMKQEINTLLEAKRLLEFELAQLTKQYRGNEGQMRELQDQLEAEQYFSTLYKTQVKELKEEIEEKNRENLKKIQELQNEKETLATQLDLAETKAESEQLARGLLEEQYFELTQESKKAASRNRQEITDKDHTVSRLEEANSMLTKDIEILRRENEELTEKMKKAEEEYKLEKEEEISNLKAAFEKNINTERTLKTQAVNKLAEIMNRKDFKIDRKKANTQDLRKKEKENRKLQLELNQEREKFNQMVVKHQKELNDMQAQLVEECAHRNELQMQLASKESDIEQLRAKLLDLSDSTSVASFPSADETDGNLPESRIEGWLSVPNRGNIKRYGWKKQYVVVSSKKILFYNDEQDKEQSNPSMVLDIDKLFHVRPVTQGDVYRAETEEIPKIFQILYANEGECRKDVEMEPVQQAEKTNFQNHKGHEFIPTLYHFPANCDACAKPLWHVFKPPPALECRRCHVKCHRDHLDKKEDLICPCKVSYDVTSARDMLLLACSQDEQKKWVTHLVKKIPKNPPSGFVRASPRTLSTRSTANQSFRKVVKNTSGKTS
Recombinant ROCK2, sequence (O75116 whole entry): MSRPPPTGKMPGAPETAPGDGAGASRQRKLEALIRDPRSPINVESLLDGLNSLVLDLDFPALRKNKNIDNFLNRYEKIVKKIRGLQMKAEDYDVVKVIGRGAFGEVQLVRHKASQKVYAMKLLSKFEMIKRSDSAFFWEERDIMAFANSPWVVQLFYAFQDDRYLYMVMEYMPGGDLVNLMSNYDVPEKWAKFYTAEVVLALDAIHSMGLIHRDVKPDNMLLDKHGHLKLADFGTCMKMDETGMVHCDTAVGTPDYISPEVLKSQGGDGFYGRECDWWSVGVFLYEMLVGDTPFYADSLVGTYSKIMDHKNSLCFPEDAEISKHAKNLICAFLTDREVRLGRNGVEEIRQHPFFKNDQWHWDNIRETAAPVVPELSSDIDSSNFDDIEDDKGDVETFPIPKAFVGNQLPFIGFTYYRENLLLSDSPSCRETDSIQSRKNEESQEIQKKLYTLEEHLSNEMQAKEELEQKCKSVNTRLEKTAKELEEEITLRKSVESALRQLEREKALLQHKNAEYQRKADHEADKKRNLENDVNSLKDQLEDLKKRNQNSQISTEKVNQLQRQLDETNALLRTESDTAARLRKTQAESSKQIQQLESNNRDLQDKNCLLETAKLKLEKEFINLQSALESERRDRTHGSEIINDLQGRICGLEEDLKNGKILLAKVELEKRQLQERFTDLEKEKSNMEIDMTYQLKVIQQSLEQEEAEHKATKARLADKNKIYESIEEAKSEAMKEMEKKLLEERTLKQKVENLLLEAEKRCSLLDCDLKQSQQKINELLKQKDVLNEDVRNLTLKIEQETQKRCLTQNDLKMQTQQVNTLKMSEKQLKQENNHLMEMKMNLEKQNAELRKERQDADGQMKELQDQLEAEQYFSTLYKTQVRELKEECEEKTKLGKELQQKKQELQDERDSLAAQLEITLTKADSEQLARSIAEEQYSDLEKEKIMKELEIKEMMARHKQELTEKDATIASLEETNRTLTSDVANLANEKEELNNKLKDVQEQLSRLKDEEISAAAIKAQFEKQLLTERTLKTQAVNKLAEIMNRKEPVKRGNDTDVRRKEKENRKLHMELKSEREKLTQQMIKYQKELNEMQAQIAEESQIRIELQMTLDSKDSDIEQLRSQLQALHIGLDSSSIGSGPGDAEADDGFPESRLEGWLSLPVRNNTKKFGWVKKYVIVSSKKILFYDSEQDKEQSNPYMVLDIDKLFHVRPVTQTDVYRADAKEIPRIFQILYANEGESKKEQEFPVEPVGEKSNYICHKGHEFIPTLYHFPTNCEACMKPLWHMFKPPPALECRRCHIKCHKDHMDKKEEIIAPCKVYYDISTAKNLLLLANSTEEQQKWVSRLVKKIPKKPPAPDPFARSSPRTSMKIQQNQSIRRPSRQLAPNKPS

For `Cc1cccc(C(CN)C(=O)Nc2cccc3c(-c4cn[nH]c4)c[nH]c23)n1` (racemic) [Example 93, 3-amino-2-(6-methylpyridin-2-yl)-N-[3-(1H-pyrazol-4-yl)-1H-indol-7-yl]propanamide], the pIC50 was 7.70 in assay [1] and 7.89 in assay [2].

In the case of `NCC(C(=O)Nc1cccc2c(-c3cn[nH]c3)c[nH]c12)C1CCOC1` (racemic) [Example 94, N-(3-(1H-pyrazol-4-yl)-1H-indol-7-yl)-3-amino-2-(tetrahydrofuran-3-yl)propanamide], the negative-log IC50 (pIC50) in assay [1] is 8.19; in assay [2], 8.52.

In the case of `NCC(C(=O)Nc1cccc2c(-c3cn[nH]c3)c[nH]c12)C1CCCC1` (racemic) [Example 95, 3-amino-2-cyclopentyl-N-[3-(1H-pyrazol-4-yl)-1H-indol-7-yl]propanamide], the figures for the pIC50 in assay [1] and in assay [2] were 8.43 and 8.64, respectively.

On to `NCC(C(=O)Nc1cccc2c(-c3cn[nH]c3)c[nH]c12)C1CCOC1` (racemic) [Example 96, N-(3-(1H-pyrazol-4-yl)-1H-indol-7-yl)-3-amino-2-(tetrahydrofuran-3-yl)propanamide], for which the pIC50 in assay [1] is 8.14; in assay [2], 8.40.

Take `CP(C)(=O)c1ccc(C(CN)C(=O)Nc2cccc3c(-c4cn[nH]c4)c[nH]c23)cc1` (racemic) [Example 97, 3-amino-2-[4-(dimethylphosphoryl)phenyl]-N-[3-(1H-pyrazol-4-yl)-1H-Indol-7-yl]propanamide]: the pIC50 in assay [1] is 6.91; in assay [2] it was 7.55.

As to `NCC(C(=O)Nc1cccc2c(-c3cn[nH]c3)c[nH]c12)c1ccccn1` (racemic) [Example 98, 3-amino-N-[3-(1H-pyrazol-4-yl)-1H-indol-7-yl]-2-(pyridin-2-yl)propanamide], the pIC50 in assay [1] is 8.04; in assay [2], 8.37.

Consider `CC(=O)NCc1ccc(C(CN)C(=O)Nc2cccc3c(-c4cn[nH]c4)c[nH]c23)cc1` (racemic) [Example 99, N-(3-(1H-pyrazol-4-yl)-1H-indol-7-yl)-2-(4-(acetamidomethyl)phenyl)-3-aminopropanamide], for which the pIC50 in assay [1] is 8.49; in assay [2], 8.96.

`COc1cc(C(CN)C(=O)Nc2cccc3c(-c4cn[nH]c4)c[nH]c23)ccc1CO` (racemic) [Example 101, 3-amino-2-[4-(hydroxymethyl)-3-methoxyphenyl]-N-[3-(1H-pyrazol-4-yl)-1H-indol-7-yl]propanamide]: the pIC50 in assay [1] was 8.80; in assay [2], 9.09.

With `COc1cncc(C(CN)C(=O)Nc2cccc3c(-c4cn[nH]c4)c[nH]c23)c1` (racemic) [Example 102, 3-amino-2-(5-methoxypyridin-3-yl)-N-[3-(1H-pyrazol-4-yl)-1H-indol-7-yl]propanamide], the results for the pIC50 in assay [1] and in assay [2] were 8.89 and 9.25, respectively.

Turning to `Cn1ccc(C(CN)C(=O)Nc2cccc3c(-c4cn[nH]c4)c[nH]c23)cc1=O` (racemic) [Example 103, 3-amino-2-(1-methyl-2-oxopyridin-4-yl)-N-[3-(1H-pyrazol-4-yl)-1H-indol-7-yl]propanamide], the pIC50 in assay [1] was 8.85; in assay [2] it was 9.28.

On to `COc1ccc(C(N)C(=O)Nc2cccc3c(-c4cn[nH]c4)c[nH]c23)cc1` (racemic) [Example 104, 2-amino-2-(4-methoxyphenyl)-N-[3-(1H-pyrazol-4-yl)-1H-indol-7-yl]acetamide], for which the pIC50 was 8.70 in assay [1] and 9.05 in assay [2].

`CC(N)(C(=O)Nc1cccc2c(-c3cn[nH]c3)c[nH]c12)c1ccccc1` (racemic) [Example 107, 2-amino-2-phenyl-N-[3-(1H-pyrazol-4-yl)-1H-indol-7-yl]propanamide]: the figures for the pIC50 in assay [1] and in assay [2] were 8.22 and 8.43, respectively.

As to `NC(C(=O)Nc1cccc2c(-c3cn[nH]c3)c[nH]c12)C1CCCCC1` (racemic) [Example 122, N-(3-(1H-pyrazol-4-yl)-1H-indol-7-yl)-2-amino-2-cyclohexylacetamide], the pIC50 in assay [1] was 7.96; in assay [2], 8.05.

Regarding `CN1CCN(C(C(=O)Nc2cccc3c(-c4cn[nH]c4)c[nH]c23)C2CCCCC2)CC1` (racemic) [Example 129, 2-cyclohexyl-2-(4-methylpiperazin-1-yl)-N-[3-(1H-pyrazol-4-yl)-1H-indol-7-yl]acetamide], the pIC50 in assay [1] and in assay [2] was 8.77 in each case.

With `O=C(Nc1cccc2c(-c3cn[nH]c3)c[nH]c12)C1CNCc2ccccc21` (racemic) [Example 133, N-(3-(1H-pyrazol-4-yl)-1H-indol-7-yl)-1,2,3,4-tetrahydroisoquinoline-4-carboxamide], the pIC50 in assay [1] was 7.36; in assay [2], 7.51.

For `NCC(NC(=O)c1cccc2c(-c3cn[nH]c3)c[nH]c12)c1ccccc1` (racemic) [Example 134, N-(2-amino-1-phenylethyl)-3-(1H-pyrazol-4-yl)-1H-indole-7-carboxamide], the values for the pIC50 in assay [1] and in assay [2] were 8.59 and 9.06, respectively.

For the compound `NCCC(NC(=O)c1cccc2c(-c3cn[nH]c3)c[nH]c12)c1ccccc1` (racemic) [Example 140, N-(3-amino-1-phenylpropyl)-3-(1H-pyrazol-4-yl)-1H-indole-7-carboxamide], the pIC50 in assay [1] was 8.55; in assay [2] it was 9.07.

For the compound `CN1CCC(C(NC(=O)c2cccc3c(-c4cn[nH]c4)c[nH]c23)C2CCCCC2)CC1` (racemic) [Example 143, N-[cyclohexyl (1-methylpiperidin-4-yl)methyl]-3-(1H-pyrazol-4-yl)-1H-indole-7-carboxamide], the pIC50 in assay [1] was 6.40; in assay [2], 6.50.

With `NCC(NC(=O)c1cccc2c(-c3cn[nH]c3)c[nH]c12)c1ccc(CO)cc1` (racemic) [Example 146, N-(2-amino-1-(4-(hydroxymethyl)phenyl)ethyl)-3-(1H-pyrazol-4-yl)-1H-indole-7-carboxamide], the pIC50 was 7.74 in assay [1] and 8.31 in assay [2].

Consider `NCC(Cc1ccccc1)NC(=O)c1cccc2c(-c3cn[nH]c3)c[nH]c12` (racemic) [Example 147, N-(1-amino-3-phenylpropan-2-yl)-3-(1H-pyrazol-4-yl)-1H-indole-7-carboxamide], for which the pIC50 in assay [1] is 9.06; in assay [2] it was 9.40.

With `CP(C)(=O)c1cccc(C(CN)NC(=O)c2cccc3c(-c4cn[nH]c4)c[nH]c23)c1` (racemic) [Example 151, (rac)-N-{2-amino-1-[3-(dimethylphosphoryl)phenyl]ethyl}-3-(1H-pyrazol-4-yl)-1H-indole-7-carboxamide], the pIC50 is 6.69 in assay [1] and 7.15 in assay [2].

With `Cc1ccc(C(=O)OCc2ccc(C(CN)C(=O)Nc3cccc4c(-c5cn[nH]c5)c[nH]c34)cc2)c(C)c1` (single isomer, unassigned) [Example 5], the results for the pIC50 in assay [1] and in assay [2] were 8.10 and 8.37, respectively.

With `Cc1ccc(C(=O)OCc2ccc(C(CN)C(=O)Nc3cccc4c(-c5cn[nH]c5)c[nH]c34)cc2)c(C)c1` (single isomer, unassigned) [Example 6], the pIC50 in assay [1] was 6.35; in assay [2], 6.61.

Turning to `COc1cccc(C(CN)C(=O)Nc2cccc3c(-c4cn[nH]c4)c[nH]c23)c1` (single isomer, unassigned) [Example 17, N-(3-(1H-pyrazol-4-yl)-1H-indol-7-yl)-3-amino-2-(3-methoxyphenyl)propanamide], the pIC50 in assay [1] was 7.51; in assay [2], 7.82.

In the case of `N#Cc1cccc(C(CN)C(=O)Nc2cccc3c(-c4cn[nH]c4)c[nH]c23)c1` (single isomer, unassigned) [Example 21, N-(3-(1H-pyrazol-4-yl)-1H-indol-7-yl)-3-amino-2-(3-cyanophenyl)propanamide], the pIC50 in assay [1] was 6.90; in assay [2], 7.15.

Regarding `NCC(C(=O)Nc1cccc2c(-c3cn[nH]c3)c[nH]c12)C1CCCCC1` (single isomer, unassigned) [Example 24, N-(3-(1H-pyrazol-4-yl)-1H-indol-7-yl)-3-amino-2-cyclohexylpropanamide], the pIC50 in assay [1] is 8.40; in assay [2], 8.52.

For `NCC(C(=O)Nc1cccc2c(-c3cn[nH]c3)c[nH]c12)C1CCOCC1` (single isomer, unassigned) [Example 27, N-(3-(1H-pyrazol-4-yl)-1H-indol-7-yl)-3-amino-2-(tetrahydro-2H-pyran-4-yl)propanamide], the pIC50 in assay [1] is 7.06; in assay [2], 7.18.

Take `COc1cccc([C@@H](C(=O)Nc2cccc3c(-c4cn[nH]c4)c[nH]c23)C2CCN(C)CC2)c1` (single isomer, unassigned) [Example 29, N-(3-(1H-pyrazol-4-yl)-1H-indol-7-yl)-2-(3-methoxyphenyl)-2-(1-methylpiperidin-4-yl) acetamide]: the figures for the pIC50 in assay [1] and in assay [2] were 7.23 and 7.64, respectively.

Regarding `COc1cccc([C@H](C(=O)Nc2cccc3c(-c4cn[nH]c4)c[nH]c23)C2CCN(C)CC2)c1` (single isomer, unassigned) [Example 30, N-(3-(1H-pyrazol-4-yl)-1H-indol-7-yl)-2-(3-methoxyphenyl)-2-(1-methylpiperidin-4-yl) acetamide], the pIC50 was 8.49 in assay [1] and 8.96 in assay [2].

Turning to `NCC(C(=O)Nc1cccc2c(-c3cn[nH]c3)c[nH]c12)c1cccnc1` (single isomer, unassigned) [Example 33, N-(3-(1H-pyrazol-4-yl)-1H-indol-7-yl)-3-amino-2-(pyridin-3-yl)propanamide], the pIC50 is 7.01 in assay [1] and 7.30 in assay [2].

Take `COc1cccc(C(CN2CCN(C)CC2)C(=O)Nc2cccc3c(-c4cn[nH]c4)c[nH]c23)c1` (single isomer, unassigned) [Example 35, N-(3-(1H-pyrazol-4-yl)-1H-indol-7-yl)-2-(3-methoxyphenyl)-3-(4-methylpiperazin-1-yl)propanamide]: the pIC50 in assay [1] is 8.74; in assay [2] it was 9.12.
